The text below walks through data of PubChem BioAssay AID1259334 (Broad Institute, 2017).

Each structure is given as a SMILES string. Where “and” joins values, the source holds several entries; their conditions need not be identical. Identical values can stand only once. Calls of active or inactive are those of the source. No stated cut-off is given here; in the data, active means AC50 below about 11 µM. Numbered stars: 1 amine (or outer) side, 2 acyl side, 3 side chain; on linkers, the order of the positions; unused ones are H or OH. Bridge positions count the residues as written; N and C are the ends. Square brackets hold non-standard residues; d marks the D form. Peptide text beside a SMILES is read from it. I, II: the chains in the order shown. Actinocin(9to1) = Cc1c2oc3c(C)ccc(C(=O)[*:1])c3nc-2c(C(=O)[*:2])c(N)c1=O; NMeV = CN[CH](C(=O)O)C(C)C; Sar = CNCC(=O)O

This assay deals with B cell line, TNFa signaling counterscreen reporter. Nature of the assay: TNFa pathway inhibition counter-screen, B-lineage cells – dose response (AID 1259334).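 Further: cells stimulated with TNFa after compound preincubation.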 A general note: The purpose of a counterscreen is to sort out artefacts and off-target activity.
Consider `C[C@H](CO)N1C[C@H](C)[C@H](CN(C)S(=O)(=O)c2ccc(Cl)cc2)Oc2c(NC(=O)Nc3ccc(F)cc3)cccc2C1=O`, for which the half-maximal activity concentration (AC50) is 4.98 µM. The figure for `O=C(C1CCCC1)N1CC(=O)N2[C@@H](CO)[C@@H](c3ccc(C#CCc4ccccc4)cc3)[C@@H]2C1` is 1.7 µM.

On to `O=C(Nc1cccc(N2C(=O)C=CC2=O)c1)c1cccs1`, for which the AC50 was 1.22 µM. Next, `Cc1ccc2c(c1)C(O)(CC(=O)/C=C/C=C/c1ccccc1)C(=O)N2` (stereo unspecified): > 20 µM (inactive); `C[C@@H]1CN([C@H](C)CO)C(=O)c2ccccc2-c2ccccc2CO[C@@H]1CN(C)Cc1ccccc1C(F)(F)F`: 10.7 µM. Next, `CCS(=O)(=O)N1[C@H](CO)[C@@H](c2ccc(C#Cc3ccccc3F)cc2)[C@@H]1C#N`: 7.11 µM; `COc1c(O)cc2oc3cc(O)c(CC=C(C)C)c(O)c3c(=O)c2c1CC=C(C)C`: 3.15 µM.

Turning to `N#C[C@H]1N[C@H](CO)[C@H]1c1ccc(C#CC2CCCC2)cc1`, the AC50 was 8.01 µM. Regarding `Cc1ccc2c(=O)c3ccccc3n(CCCN)c2c1C`, the AC50 was 3.28 µM. As to `C[C@H]1CN([C@@H](C)CO)C(=O)Cc2cc(NC(=O)Cc3cn(C)c4ccccc34)ccc2O[C@H]1CN(C)Cc1ccc(C(F)(F)F)cc1`, the AC50 was > 20 µM (inactive). The figure for `Cn1cc(C2=C(c3cn(CCCSC(=N)N)c4ccccc34)C(=O)NC2=O)c2ccccc21` is 0.305 µM; for `C=C1C(=O)O[C@H]2[C@H]1CC/C(C)=C/CC[C@@]1(C)O[C@@H]21` it is 3.54 µM. Next, `c1ccc2sc(-c3ccc4c(c3)OCO4)nc2c1`: 8.09 µM. The figure for `Cc1cc(C)cc(N2C(=O)CC(Sc3nnnn3-c3ccccc3)C2=O)c1` (stereo unspecified) is 0.728 µM; for `N#CC(C#N)=NNc1ccc(OC(F)(F)F)cc1` it is 7.15 µM. Regarding `Fc1ccccc1CNCCC(Cc1ccccc1)c1ccc2c(c1)OCO2` (stereo unspecified), the concentration at half-maximal activity (AC50) was 3.4 µM.

For the compound `CC(=O)NC12CC3CC(C1)CC(C(=O)OCC(=O)c1ccc4c(c1)OCCO4)(C3)C2`, the half-maximal activity concentration (AC50) is 6.44 µM. Next, `Cc1ccc(S(=O)(=O)NC(C(=O)Oc2cc3oc(=O)cc(C)c3cc2Cl)C(C)C)cc1` (stereo unspecified): 9.41 µM; `CC(C)(C)OC(=O)CC(S(=O)(=O)c1ccccc1)S(=O)(=O)c1ccccc1`: 1.07 µM. `Cc1csc(NC(=O)c2ccc(N3CCCC3=O)cc2)n1`: the AC50 was 3.75 µM. Next, `COc1ccc(S(=O)(=O)Nc2ccc3c(c2)C(=O)N([C@@H](C)CO)C[C@H](C)[C@@H](CN(C)Cc2ccc(C(F)(F)F)cc2)OCCCC[C@@H](C)O3)cc1`: 7.51 µM.

Turning to `COC(=O)C12OCC34C(CC5C(C)=C(O)C(=O)CC5(C)C3C(O)C1O)OC(=O)C(OC(=O)C=C(C)C)C24` (stereo unspecified), the AC50 was 0.671 µM.

For the compound `N#C[C@H]1[C@H](c2ccc(C#Cc3ccc(F)cc3)cc2)[C@@H](CO)N1C(=O)C1CCC1`, the AC50 was > 20 µM (inactive).

Regarding `CCC(=O)O[C@]1(C(=O)CCl)[C@@H](C)C[C@H]2[C@@H]3CCC4=CC(=O)C=C[C@]4(C)[C@@]3(F)[C@@H](O)C[C@@]21C`, the AC50 is > 20 µM (inactive). Next, `CC1CCCC=CC2CC(OC(=O)CN(C)C)CC2C(O)C=CC(=O)O1` (stereo unspecified): 0.0509 µM; `Cn1cnc(CCNC(=O)C[C@@H]2CC[C@@H]3[C@H](COC[C@@H](O)CN3C(=O)Nc3ccc(C(F)(F)F)cc3)O2)c1`: 9.53 µM. The figure for `C[C@@H]1CN([C@@H](C)CO)C(=O)c2c(c3ccccc3n2C)-c2ccccc2CO[C@H]1CN(C)C(=O)Nc1ccccc1C(F)(F)F` is 8.9 µM. Turning to `c1ccc(-c2nc(-c3ccccn3)no2)cc1`, the AC50 was 3.9 µM. Next, `C=C1CC(Cn2cc(Br)c(=O)[nH]c2=O)(c2ccc(-c3ccccc3)cc2)OC1=O` (stereo unspecified): 1.07 µM; `COC(=O)C1=C(C(=O)OC)C(C(=O)OC)C(C(=O)OC)C(C(=O)OC)(C(=O)OC)C(C(=O)OC)=C1C(=O)OC` (stereo unspecified): 4.62 µM; `Cc1ccc(S(=O)(=O)CCC(=O)N(CCCN2CCOCC2)c2nc3ccccc3s2)cc1`: 7.38 µM. As for `COC(=O)C[C@](O)(CCCC(C)(C)O)C(=O)O[C@@H]1C(OC)=C[C@]23CCCN2CCc2cc4c(cc2[C@H]13)OCO4`, the concentration at half-maximal activity (AC50) was under 0.0046 µM. The figure for `COc1cc(/C=N/n2cnnc2)ccc1OC(=O)c1ccncc1` is 8.26 µM. As for `O=C(c1ccc(Nc2nccc(-c3cc4ccccc4s3)n2)cc1)N1CCC(N2CCCC2)CC1`, the AC50 is 0.15 µM and 0.715 µM. The figure for `OC1CC2CCC(C1)N2CCCN1c2ccccc2Sc2ccc(Cl)cc21` (stereo unspecified) is 9.1 µM; for `COc1ccc(C(=O)CCN2CCc3cc(OC)c(OC)cc3C2)cc1` it is 5.97 µM.

`CN(C)c1ccc(C(=C2C=CC(=[N+](C)C)C=C2)c2ccc(N(C)C)cc2)cc1`: the AC50 was 0.099 µM. The figure for `COc1ccc(/C=N/Nc2ncccc2[N+](=O)[O-])c(OC)c1` is 5.22 µM. The figure for `CC(C)(C)CC(C)(C)c1ccc(O)c(Cc2ccc(Cl)cc2Cl)c1` is 5.5 µM; for `Oc1c(Cl)cc(Cl)c(Cl)c1Cc1c(O)c(Cl)cc(Cl)c1Cl` it is 2.69 µM. Next, `CN1C(=O)/C(=N\OC(=O)c2cccc3ccccc23)c2ccccc21`: 1.85 µM.

`Cc1c2oc3c(C)ccc(C(=O)OC(C)C4NC(=O)C(C(C)C)N(C)C(=O)CN(C)C(=O)C5CCCN5C(=O)C(C(C)C)NC4=O)c3nc-2c(C(=O)OC(C)C2NC(=O)C(C(C)C)N(C)C(=O)CN(C)C(=O)C3CCCN3C(=O)C(C(C)C)NC2=O)c(N)c1=O` (stereo unspecified) (I: cyclo([Sar][NMeV]TVP) / II: cyclo([Sar][NMeV]TVP); linker I:3-II:3 via Actinocin(9to1); configuration not given here): the AC50 is 0.00519 µM. With `O=C1/C(=C/c2ccccc2)C[C@@]2(O)C3Cc4ccc(O)c5c4[C@@]2(CCN3CC2CC2)[C@H]1O5`, the half-maximal activity concentration (AC50) was 1.34 µM. The figure for `CC[N+]1(C)CCC(O)(c2ccc(OC)cc2)C(C(=O)c2ccc(OC)cc2)C1` (stereo unspecified) is 3.52 µM; for `O=C1CC(c2ccc3c(c2)OCO3)Sc2nc3ccccc3n21` (stereo unspecified) it is 3.83 µM; for `N#C[C@@H]1[C@H](c2ccc(C#CC3CCCCC3)cc2)[C@H](CO)N1C(=O)Nc1ccc(F)cc1` it is > 20 µM (inactive). `NC(c1ccccc1)c1csc(NC(=O)Nc2cccc(C(F)(F)F)c2)n1` (stereo unspecified): the AC50 was 3.07 µM. The figure for `CC(C)(C)[C@H](N)C(=O)N[C@H]1CCC2C3CC=C4C[C@@H](O)CC[C@]4(C)C3CC[C@@]21C` (stereo partly specified) is 4.1 µM; for `OC1(c2ccc(Cl)c(C(F)(F)F)c2)CCN(CCCC(c2ccc(F)cc2)c2ccc(F)cc2)CC1` it is 8.99 µM. Next, `Cc1cc(C)nc(Sc2ncnc(N)c2[N+](=O)[O-])n1`: 2.53 µM; `NC(=O)c1c(Br)n(C2OC(CO)C(O)C2O)c2ncnc(N)c12` (stereo unspecified): 1.5 µM; `N#C[C@H]1[C@H](c2ccc(-c3cccc(F)c3)cc2)[C@H](CO)N1C(=O)NC1CCCC1`: > 20 µM (inactive).

On to `COc1ccc(/C=C/C(=O)Nc2ccccc2C(=O)O)cc1OC`, for which the AC50 is 8.81 µM. The figure for `COc1cc2cc(C(=O)N3CC(COS(C)(=O)=O)c4ccc(O)cc43)[nH]c2c(OC)c1OC` (stereo unspecified) is 0.00612 µM; for `C[n+]1c2n(c3ccccc31)N=C(c1ccc(-c3ccccc3)cc1)CS2` it is 1.25 µM.

`CC1CC(C)CC(C)C(O)C(C#N)=CC=CCC(C2CCCC2C(=O)O)OC(=O)CC(O)C(C)C1` (stereo unspecified): the AC50 is under 0.0005 µM. The figure for `O=C(Cn1ncc(Cl)c(Cl)c1=O)NC1CCCCC1` is 2.42 µM. Regarding `CC1OC(CC(=O)O)CC2=C1C(=O)c1c(O)cccc1C2=O` (stereo unspecified), the AC50 was 0.0869 µM. The figure for `C[C@H]1CN([C@@H](C)CO)C(=O)c2c(c3ccccc3n2C)-c2ccccc2CO[C@@H]1CN(C)Cc1cccc(C(F)(F)F)c1` is 8.42 µM; for `CCCCCN1C=CC(=C2C(=O)c3ccccc3C2=O)C=C1` it is 0.316 µM; for `COc1ccc(CN(CCC(c2ccc(F)cc2)C2CCOC(C)(C)C2)C(=O)c2ccco2)cc1` (stereo unspecified) it is 11.3 µM. Consider `CC1=CC2OC3CC4OC(=O)C=CC=CC(C(C)O)OCC(O)C5(C)OC5C(=O)OCC2(CC1O)C4(C)C31CO1` (stereo unspecified), for which the AC50 is 0.0273 µM. The figure for `COc1ccc(/C=C\c2nc(=O)c3ccccc3o2)cc1` is 9.73 µM. In the case of `COC1=CC(=O)c2c(ccc3ncnc(N)c23)C1=O`, the AC50 is 0.98 µM. The figure for `CCCC(=O)NC1=C(Cl)C(=O)c2ccccc2C1=O` is 0.712 µM. As for `C=CC[n+]1c(/C=C2\C=Cc3cc(C)ccc3N2CC)ccc2ccccc21`, the AC50 is 0.951 µM. Consider `COc1cc(C(C)C)c2c(c1)S(=O)(=O)N(COc1cc(=O)n3cccc(OCCN4CCCCC4)c3n1)C2=O`, for which the AC50 is 3.4 µM. The figure for `CC1=CC2OC3CC4OC(=O)C=CC=CC(=O)OCCC(C)C(O)C(=O)OCC2(CC1O)C4(C)C31CO1` (stereo unspecified) is 0.00511 µM. Consider `CC(C)(C)c1cc(C=C(C#N)C#N)cc(C(C)(C)C)c1O`, for which the concentration at half-maximal activity (AC50) is 1.22 µM. The figure for `C[C@@H]1CN([C@@H](C)CO)C(=O)c2c(c3ccccc3n2C)-c2ccccc2CO[C@H]1CN(C)Cc1cccc(C(F)(F)F)c1` is 6.02 µM; for `O=C(C1CC1)N1C[C@@H]2N[C@H](C1)[C@@H]2c1ccc(-c2ccncc2)cc1` it is 5 µM. Next, `COC(=O)c1nn(-c2ccc(-c3ccccc3)cc2)cc1O`: 8.92 µM. The figure for `c1ccc(OCCSc2nnc3sc4ccccc4n23)cc1` is 2.98 µM; for `CCCNC(=O)c1cc2c(c(-c3cccc(-c4cc5ccccc5o4)c3)n1)[C@H](CCO)N(C(=O)NC(C)C)C2` it is > 20 µM (inactive).

For the compound `COc1cccc(/C=N/Nc2ccc(C(=O)O)cc2)c1O`, the AC50 is 2.02 µM. The figure for `CCS(=O)(=O)N1Cc2ccccc2CC1C(=O)Nc1nc2ccccc2s1` (stereo unspecified) is 6.66 µM; for `N#Cc1cccc(-c2ccc(C3[C@@H]4CN(C(=O)Nc5ccc(C(F)(F)F)cc5)C[C@H]3N4)cc2)c1` (stereo partly specified) it is 10 µM.

Turning to `Cc1cc(C(=O)COC(=O)c2ccco2)c(C)n1Cc1ccco1`, the half-maximal activity concentration (AC50) is 0.111 µM. `C[C@@H]1CC=CC[C@H](c2ccc(F)cc2)NC(=O)[C@@H](Cc2ccccc2)N(C)C(=O)c2ccccc2O1` (mixture of isomers): the AC50 was > 20 µM (inactive).

In the case of `O=C(Cc1ccccc1)N1CC[C@@H]2[C@H]1c1cc(-c3cccc(F)c3)ccc1N[C@@H]2CO`, the AC50 is 10.7 µM. The figure for `CC(OC(=O)c1cc(Br)ccc1O)C(=O)Nc1ccc(S(=O)(=O)N2CCCC2)cc1` (stereo unspecified) is 7.82 µM.

Usually AC50 stands for the midpoint of the concentration-response curve, whichever way the signal moves.
